Data: the supplement of paper PMC10307832

Assays:
Test in all cases: relative viability (nuclei count vs DMSO), 5 days (fraction); higher = more cells survive
[1] = compound: O=c1[nH]cc(F)c(=O)[nH]1 [5-Fluorouracil] + N=C(N)NC(=N)NCCc1ccccc1 [Phenformin] (partner 250 µM)
Procedure, shortened: (§1)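 Relative viability was taken as the ratio of nuclei in treated wells to nuclei in vehicle wells. Lung cancer cell lines in 1536-well plates received compounds by pin tool one day after seeding, either one drug alone or a fixed anchor-drug dose plus five library-drug doses (not always all listed) in √10 steps. Nuclei were counted on 4× images after 5 days of treatment, and values are medians of duplicate plates.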

[2] = compound: O=c1[nH]cc(F)c(=O)[nH]1 [5-Fluorouracil] + CS(=O)(=O)CCNCc1ccc(-c2ccc3ncnc(Nc4ccc(OCc5cccc(F)c5)c(Cl)c4)c3c2)o1 [Lapatinib] (partner 2 µM)
Procedure, shortened: as §1

[3] = compound: CN[C@@H]1C[C@H]2O[C@@](C)([C@@H]1OC)n1c3ccccc3c3c4c(c5c6ccccc6n2c5c31)C(=O)NC4 [Staurosporine] + Cc1nc(Nc2ncc(C(=O)Nc3c(C)cccc3Cl)s2)cc(N2CCN(CCO)CC2)n1 [Dasatinib] (partner 0.075 µM)
Procedure, shortened: as §1

[4] = compound: CC1=C(CC(=O)O)c2cc(F)ccc2/C1=C\c1ccc([S+](C)[O-])cc1 [Sulindac] + Cc1nc(Nc2ncc(C(=O)Nc3c(C)cccc3Cl)s2)cc(N2CCN(CCO)CC2)n1 [Dasatinib] (partner 0.075 µM)
Procedure, shortened: as §1

Row | Cell Line | relative viability ([1]; first compound 0.02 µM) | relative viability ([1]; first compound 0.2 µM) | relative viability ([1]; first compound 0.6325 µM) | relative viability ([1]; first compound 2 µM) | relative viability ([2]; first compound 0.02 µM) | relative viability ([2]; first compound 0.2 µM) | relative viability ([2]; first compound 0.6325 µM) | relative viability ([2]; first compound 2 µM) | relative viability ([3]; first compound 0.005 µM) | relative viability ([3]; first compound 0.01581 µM) | relative viability ([3]; first compound 0.05 µM) | relative viability ([3]; first compound 0.1581 µM) | relative viability ([3]; first compound 0.5 µM) | relative viability ([4]; first compound 0.08 µM) | relative viability ([4]; first compound 0.253 µM) | relative viability ([4]; first compound 0.8 µM) | relative viability ([4]; first compound 2.53 µM) | relative viability ([4]; first compound 8 µM)
1 | NCI-H596 | 0.863 | 0.676 | 0.643 | 0.508 | 1.05 | 0.944 | 0.645 | 0.516 | 0.7 | 0.467 | 0.276 | 0.226 | 0.183 | 0.563 | 0.56 | 0.6 | 0.666 | 0.641
2 | NCI-H1792 | 0.199 | 0.365 | 0.177 | 0.122 | 0.893 | 0.853 | 0.235 | 0.161 | 0.897 | 0.639 | 0.451 | 0.359 | 0.289 | 0.881 | 0.867 |  | 0.812 | 0.914
3 | NCI-H358 | 0.351 | 0.383 | 0.313 | 0.262 | 0.509 | 0.508 | 0.435 | 0.352 | 0.373 | 0.072 | 0.178 | 0.0752 | 0.0597 | 0.125 | 0.128 | 0.191 | 0.155 | 0.19
4 | NCI-H1755 | 0.667 | 0.598 | 0.364 | 0.256 | 1.06 | 0.848 | 0.327 | 0.263 | 0.229 | 0.206 | 0.149 |  | 0.169 | 0.52 | 0.478 | 0.36 | 0.442 | 0.495
5 | EPLC-272H | 0.247 | 0.257 | 0.245 | 0.184 | 0.97 | 0.879 | 0.358 | 0.339 | 0.179 | 0.0602 | 0.0709 | 0.0723 | 0.103 | 0.424 | 0.377 |  | 0.358 | 0.332
6 | NCI-H2228 | 0.408 | 0.249 | 0.259 | 0.249 | 1.13 | 1.06 | 0.687 | 0.505 | 0.328 | 0.245 | 0.232 | 0.069 | 0.0624 | 0.592 | 0.596 | 0.375 | 0.549 | 0.526
